From patent EP1420018A1, “Pyrido[1,2-a]benzimidazole derivatives useful in treating central nervous system disorders” (Ortho-McNeil Pharmaceutical, Inc., priority 1996, dated 1998)
Like-named read-outs stand apart in the source and are kept apart here.

What was measured:
[1] = biological target: benzodiazepine site of the GABA-A receptor; assay: Benzodiazepine Receptor Binding Assay (inhibition of 3H-flunitrazepam binding); settings: read-out: GABAA Receptor Binding IC50
[2] = test system: Anxiety in the Adult Male Rat; assay: Suppression of Anxiety in the Adult Male Rat (rat conflict test); format: in vivo, rats; settings: Rattus norvegicus
Method: Assay to Measure the Suppression of Anxiety in the Adult Male Rat
Male rats were deprived of water for 48 hours and were deprived of food for 24 hours prior to testing. After the first 24 hours of water deprivation, they were placed in the conflict chamber for a training period; wherein, they were allowed 200 unpunished licks from a bottle containing tap water. The experiment was run the next day. At the expected time of peak activity, the animals were placed in the chamber and allowed access to tap water. […] Their first lick initiates a 3-min test session. Subsequently, every 20th lick was punished by a 0.2-s shock delivered via the stainless-steel drinking-tube.
The Wilcoxon rank-sum test (Mann-Whitney U-test) was used to test for an increase (p<0.05, 1-tailed) in the median number of shocks in drug-treated groups, compared to a concurrently run vehicle-treated group. The biological assay is considered to be valid if the effects of a known anxiolytic (positive control) are detected, within the same experiment.

[3] = test system: metrazol-induced convulsions; assay: Suppression of Metrazol-Induced Convulsions in Adult Male Mice; format: in vivo; settings: Mus musculus, po, mouse
[4] = inhibition of 3H-flunitrazepam (ca. 3 nM) binding to membranes, 25°C, over 10,000 = not active
[5] = po, minimum effective dose, increase in shocks tolerated, >10 = active dose not determined, read-out: Rat Conflict (MED, mg/kg) po
[6] = ip, rat, ip, read-out: Rat Conflict (MED, mg/kg) ip
[7] = po, rat, po, read-out: Rat Conflict (MED, mg/kg) po

Row | IC50 [1, 4] [nM] | IC50 [1] [nM] | SMILES | minimal effective dose [2, 5] [mg/kg] | minimal effective dose [2, 6] [mg/kg] | minimal effective dose [2, 7] [mg/kg] | ED50 [3] [mg/kg]
1 | 3.56 | – | O=C(CN1C2=C(C(=O)Nc3ccccc3F)C(=O)CCN2c2ccc(F)cc21)NCCc1c[nH]cn1 [Compound 32] | > 3 | – | – | –
2 | 54 | – | CN=C(NCCN1C2=C(C(=O)Nc3ccccc3F)C(=O)CCN2c2ccc(F)cc21)N1CCCC1 [Compound 33] | > 3 | – | – | –
3 | 1000 | – | COc1cccc2c1N(CCN(C)C)C1=C(C(=O)Nc3nccs3)C(=O)CCN12 [Compound 34] | > 3 | – | – | –
4 | 46.9 | – | Cc1ccc(NC(=O)C2=C3N(CCNS(=O)(=O)C(F)(F)F)c4cc(F)ccc4N3CCC2=O)s1 [Compound 35] | > 10 | – | – | –
5 | – | 15.5 | O=C1CCN2C(=C1C(=O)Nc1c(F)cccc1F)N(CCN(Cc1ccccc1)Cc1ccccc1)c1cc(F)ccc12 [Compound 63, 7-Fluoro-1,2-dihydro-5-[N,N-di(benzyl)-2-aminoethyl]-3-oxo-N-(2,6-difluorophenyl)pyrido[1,2-a]benzimidazole-4-carboxamide] | – | > 10 | – | –
6 | – | 3.33 | CCOCN1C2=C(C(=O)Nc3ccc(OCc4ccccc4)cc3F)C(=O)CCN2c2ccc(F)cc21 [Compound 92] | – | – | > 3 | –
7 | – | 1.8 | CCOCN1C2=C(C(=O)Nc3ccc(OCCOC)cc3F)C(=O)CCN2c2ccc(F)cc21 [Compound 93] | – | – | ≤ 0.3 | –
8 | – | 2.38 | O=C1CCN2C(=C1C(=O)Nc1ccccc1F)N(CCO)c1c(O)cccc12 [Compound 94, 6-Hydroxy-1,2-dihydro-5-(2-hydroxyethyl)-3-oxo-N-(2-fluorophenyl)pyrido[1,2-a]benzimidazole-4-carboxamide] | – | – | > 10 | –
9 | – | 2.5 | CCOCN1C2=C(C(=O)Nc3ccc(OC(C)C)cc3F)C(=O)CCN2c2ccc(F)cc21 [Compound 95] | – | – | ≤ 3 | –
10 | – | 1.8 | COCCN1C2=C(C(=O)Nc3ccccc3F)C(=O)CCN2c2cccc(OC)c21 [Compound 96] | – | – | > 10 | –
11 | – | 0.41 | CCOCN1C2=C(C(=O)Nc3ccc(OC)cc3F)C(=O)CCN2c2ccc(F)cc21 [Compound 97, 7-Fluoro-1,2-dihydro-5-ethoxymethyl-3-oxo-N-(2-fluoro-4-methoxyphenyl)pyrido[1,2-a]benzimidazole-4-carboxamide] | – | ≤ 0.1 | 0.03 | ≤ 0.3
12 | – | 11 | COCCN1C2=C(C(=O)Nc3ncc(C)s3)C(=O)CCN2c2ccccc21 [Compound 98] | – | – | 3 | –
13 | – | 1.38 | CCOCN1C2=C(C(=O)Nc3ccc(O)cc3F)C(=O)CCN2c2ccc(F)cc21 [Compound 99, 7-Fluoro-1,2-dihydro-5·ethoxymethyl·3-oxo-N-(2-fluoro-4-hydroxyphenyl)pyrido[1,2-a]benzimidazale-4-carboxamide] | – | ≤ 1 | 1 to 3 | 0.3 to 3
14 | – | > 1000 | COCCN1C2=C(C(=O)Nc3ccccc3F)C(=O)CCN2c2c(OCc3ccccc3)cccc21 [Compound 109] | – | – | > 10 | –
15 | – | 13.3 | CCOCN1C2=C(C(=O)Nc3ccccc3F)C(=O)CCN2c2cc(F)cc(F)c21 [Compound 112] | – | – | > 10 | –
16 | – | 44.3 | CCOCN1C2=C(C(=O)Nc3ccc(F)cc3F)C(=O)CCN2c2cc(F)cc(F)c21 [Compound 113] | – | – | > 10 | –
17 | – | 3.13 | CCOCCN1C2=C(C(=O)Nc3ccc(Cl)s3)C(=O)CCN2c2ccc(F)cc21 [Compound 132] | – | – | > 3 | –
18 | – | 0.68 | CCOCN1C2=C(C(=O)Nc3ccc(C)s3)C(=O)CCN2c2ccc(F)cc21 [Compound 133] | – | – | > 3 | –
